Columns and labels:
[1] = 2,2-Diphenyl-1-picrylhydrazyl (DPPH) cell-free antioxidant assay; format: biochemical; conditions: test compound 0.05 mM, 30 minutes
Experimental: The stable radical DPPH (Blois, 1958) was dissolved in methanol to a final working concentration of 0.05 mM. This was prepared as follows. First, a 100× stock concentration (5 mM) was prepared by dissolving 3.9 mg DPPH in 2 mL methanol. Then, for 25 mL of 0.05 mM final working solution, 250 μL of the 5 mM solution was added to 24.75 mL of methanol. 1 mL of DPPH solution was added to a small volume (<5 μL) each test compound dissolved in DMSO. The final concentration of each test compound was 0.05 mM. Samples were inverted several times and allowed to incubate at room temperature for 30 minutes. Samples were then aliquoted to white 96-well solid-bottom dishes (Corning) and absorbance at 517 nm was recorded using a TECAN M200 plate reader. All values were normalized to background (methanol only). The experiment was repeated three times and the data was averaged.
In parallel with the above cell-based assay, a 2,2-diphenyl-1-picrylhydrazyl (DPPH) assay was used to examine the ability of each analog to scavenge free radicals in a cell-free in vitro solution—a test of intrinsic antioxidant capacity. […] Redox active analogs scavenged the DPPH radical by 60-90% within 30 minutes (FIG. 18a).

mice, LPS-induced shock = assay: LPS-induced lethal shock; format: in vivo, mouse; conditions: Fer-1 5 mg/kg i.p. 30 min before LPS
Experimental: Mice were injected intraperitoneally (i.p.) with 15 mg/kg Escherichia coli O111:B4 LPS (Sigma-Aldrich). Mice were pretreated by an i.p. injection of 5 mg/kg ethyl 3-amino-4-(cyclohexylamino)benzoate (Fer-1; Matrix Scientific), 10 mg/kg [5-((7-Cl-1H-indol-3-yl)methyl)-3-methylimidazolidine2,4-dione] (Nec-1s; synthesized in house), a combination of Fer-1 and Nec-1s, or vehicle (1% DMSO in PBS) 30 min before the LPS challenge. Rectal body temperature and survival rates were monitored daily up to 96 h. Experiments were approved by the animal ethics committee of Ghent University.

[2] = tested on: mice, CaOx-induced nephropathy; assay: Acute oxalate nephropathy model; format: in vivo, mouse; conditions: Ferrostatin-1 10 mg/kg i.p.
Experimental: Mice were divided into two groups. One group received vehicle injections and another group received Ferrostatin-1 (10 mg/kg i.p.). Then, 15 min later, both groups were given a single i.p. injection of 100 mg/kg sodium oxalate and 3% sodium oxalate in drinking water. Blood samples and kidneys were harvested after 24 h. Kidneys were kept at −80° C. for protein isolation and at −20° C. for RNA isolation. One part of the kidney was also kept in formalin to be embedded in paraffin for histological analysis. Kidney sections (2 μm) were stained with periodic acid-Schiff (PAS) reagent. Tubular injury was scored by assessing the percentage of necrotic tubules. Ly6B.2+ neutrophils were identified by immunostaining (clone 7/4; Serotec). Pizzolato stain was used to visualize CaOx crystals, and crystal deposit formation in the kidney was evaluated as described previously (Mulay et al., 2013), using the following point values: 0, no deposits; 1, crystals in papillary tip; 2, crystals in cortical medullary junction; 3, crystals in cortex. […] Serum creatinine and blood urea nitrogen were measured using Creatinine FS kit and Urea FS kit (both from DiaSys Diagnostic Systems) according to the manufacturer's protocol. Neutrophil infiltrates were counted in 15 high-power fields (hpfs) per section. For real-time quantitative RT-PCR, total RNA was isolated from kidneys using a Qiagen RNA extraction kit following the manufacturer's instructions. After quantification, RNA quality was assessed using agarose gels. […] Real-time quantitative RT-PCR (TaqMan) was performed using SYBR-Green PCR master mix and analyzed with a Light Cycler 480 (Roche). […] The expression of KIM-1, IL-6, CXCL-2, and NF-κB p65 was analyzed using the following primers: Kim-1 forward, 5′-[…]-3′ (SEQ ID NO:17); Kim-1 reverse, 5′-[…]-3′ (SEQ ID NO:18); IL-6 forward, 5′-[…]-3′ (SEQ ID NO:19); IL-6 reverse, 5′-[…]-3′ (SEQ ID NO:20); CXCL-2 forward, 5′-[…]-3′ (SEQ ID NO:21); CXCL-2 reverse, 5′-[…]-3′ (SEQ ID NO:22); NF-κB p65 forward, 5′-[…]-3′ (SEQ ID NO:23); NF-κB p65 reverse, 5′-[…]-3′ (SEQ ID NO:24).

HT-1080 cells = assay: Cytosolic and lipid ROS production (H2DCFDA, C11-BODIPY flow cytometry) in HT-1080 cells; format: cell-based, human; conditions: erastin (10 μM)
Experimental: The day before the experiment, 200,000 cells/well were seeded in 6-well dishes (Corning Inc., Corning, N.Y.). The day of the experiment, cells were treated with test compounds for the indicated times, then harvested by trypsinization, resuspended in 500 μL Hanks Balanced Salt Solution (HBSS, Gibco, Invitrogen Corp., Carlsbad, Calif.) containing either H2DCFDA (25 μM), C11-BODIPY(581/591) (2 μM) or MitoSOX (5 μM) (all from Molecular Probes, Invitrogen) and incubated for 10 minutes at 37° C. in a tissue culture incubator. Cells were then resuspended in 500 μL of fresh HBSS, strained through a […] cell strainer (BD Falcon, BD Biosciences, San Jose, Calif.), and analyzed using a flow cytometer (FACSCalibur or Accuri C6, BD Biosciences), which was equipped with 488-nm laser for excitation. Data was collected from the FL1 (H2DCFDA, C11-BODIPY) or FL2 channel (MitoSOX). A minimum of 10,000 cells were analyzed per condition.

## CCOC(=O)c1ccc(NC2CCCCC2)c(N)c1 [SRS8-28 (Fer-1), ethyl 3-amino-4-(cyclohexylamino)benzoate]
[1]
  intrinsic antioxidant capability in the DPPH assay: readily oxidized the stable radical
mice, LPS-induced shock
  temperature drop and survival after LPS: no difference compared with vehicle-treated mice was evident
[2]
  neutrophil infiltration and expression of CXCL-2, IL-6, KIM-1, p65: statistically significantly reduced
  serum creatinine and urea: significantly reduced
  tubular injury score: significantly reduced
HT-1080 cells
  effect of inhibitor on erastin-induced ROS accumulation: prevent erastin-induced accumulation of cytosolic and lipid ROS

— patent US11192849B2, “Compounds, compositions, and methods for modulating ferroptosis and treating excitotoxic disorders” (THE TRUSTEES OF COLUMBIA UNIVERSITY IN THE CITY OF NEW YORK, priority 2013, dated 2021)
